Tested on: MUC5AC transcription
Test: MUC5AC promoter-luciferase reporter assay (pMUC5AC3.7luc) in human epithelial cells
Type: cell-based
Method: The luciferase assay was performed as follows: expression plasmids fp38α(AF) and fp38β(AF) were previously described in Shuto, et al. (2001) Proc. Natl, Acad. Sci. U.S.A. 98, pages 8774-9. The expression plasmids p110, p85α, Akt KD, and Akt WT were provided by D. Stokoe (University of California, San Francisco). The reporter construct MUC5AC contained 3.7-kb 5′-flanking region of the human MUC5AC mucin gene in a luciferase reporter vector pGL3 (Li, et al. 1998, J. Biol. Chem. 273, 68126820). Transient transfections of cells were performed in triplicate with Trans IT-LT1 (Panvera, Madison, WT) following the manufacturer's instructions. Forty-two hours after transfection, the cells were treated with NTHi for 4 h and then harvested for use in the luciferase assay. For experiments with inhibitors, HM3 cells stably transfected with MUC5AC-luciferase plasmid were pretreated with inhibitors for 1-2 h, then treated with NTHi for 4 h and harvested for luciferase assays. Luciferase assays were performed on a Monolight 3010 luminometer for 15 s (Analytical Luminescence, San Diego, Calif.). The NTHi-dependent fold induction was calculated relative to the luciferase light units obtained in the absence of NTHi treatment. The normalized luciferase activity was thus expressed as relative luciferase activity (fold induction).

Molecule | effect on NTHi-induced MUC5AC transcription (luciferase activity) (HM3 cells stably transfected with pMUC5AC3.7luc, pretreated with inhibitor 1-2 h, then NTHi SCF 4 h) | effect on NTHi-induced MUC5AC transcription in cells already pretreated with wortmannin (HM3 cells stably transfected with pMUC5AC3.7luc, wortmannin pretreatment first) | effect on MUC5AC transcription induced by LPS from S. typhimurium (LPS pretreated with various concentrations of polymyxin B 10 min at 4° C., HM3 pMUC5AC3.7luc cells, 4 h) | effect on MUC5AC transcription induced by NTHi soluble cytoplasmic fraction (SCF pretreated with various concentrations of polymyxin B for 10 min, HM3 pMUC5AC3.7luc cells)
C[S+]([O-])c1ccc(-c2nc(-c3ccncc3)c(-c3ccc(F)cc3)[nH]2)cc1 (stereo not shown) [SB203580] | inhibited MUC5AC induction in response to NTHi cytoplasmic proteins in a dose-dependent manner | still capable of inhibiting NTHi-induced MUC5AC transcription | – | –
Polymyxin B | – | – | significantly reduced MUC5AC transcription | no significant reduction in NTHi-induced MUC5AC transcription

Reference: patent US20020151491A1, “Composition and method for treating the over-production of mucin in diseases such as otitis media using an inhibitor of MUC5AC” (priority 2000, published 2002)
